Assays:
Test in all cases: substrate depletion, UPLC-MS/MS
Type in all cases: biochemical
Conditions in all cases: 20 uM substrate, NADPH regeneration system, 0.1 M potassium phosphate pH 7.4, 30 C, 1 h, microsomes
CYP6AE19 = target: T1, CYP6AE19 (Helicoverpa armigera, UniProt A0A068EVL0)
T1 construct: full ORF, baculovirus (Bac-to-Bac) in High Five cells, microsomes, co-expressed with H. armigera cytochrome P450 reductase (HaCPR)
T1 sequence (A0A068EVL0 1-528): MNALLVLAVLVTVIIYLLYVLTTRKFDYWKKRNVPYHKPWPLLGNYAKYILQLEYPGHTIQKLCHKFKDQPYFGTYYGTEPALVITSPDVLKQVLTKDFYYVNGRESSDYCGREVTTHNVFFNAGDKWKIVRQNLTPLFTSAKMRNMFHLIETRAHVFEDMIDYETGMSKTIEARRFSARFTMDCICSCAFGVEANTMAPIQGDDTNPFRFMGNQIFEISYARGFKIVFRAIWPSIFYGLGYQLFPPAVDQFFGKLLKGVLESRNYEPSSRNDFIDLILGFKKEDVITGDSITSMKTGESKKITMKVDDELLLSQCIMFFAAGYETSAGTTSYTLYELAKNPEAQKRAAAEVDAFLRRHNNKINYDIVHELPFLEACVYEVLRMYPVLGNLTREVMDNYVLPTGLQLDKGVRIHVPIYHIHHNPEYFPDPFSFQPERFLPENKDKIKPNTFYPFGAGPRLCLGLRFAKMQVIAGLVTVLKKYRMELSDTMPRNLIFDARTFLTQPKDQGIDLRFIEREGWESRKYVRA

CYP6AE14 = target: T2, CYP6AE14 (Helicoverpa armigera, UniProt A0A068EU65)
T2 construct: full ORF, baculovirus (Bac-to-Bac) in High Five cells, microsomes, co-expressed with H. armigera cytochrome P450 reductase (HaCPR)
T2 sequence (A0A068EU65 1-526): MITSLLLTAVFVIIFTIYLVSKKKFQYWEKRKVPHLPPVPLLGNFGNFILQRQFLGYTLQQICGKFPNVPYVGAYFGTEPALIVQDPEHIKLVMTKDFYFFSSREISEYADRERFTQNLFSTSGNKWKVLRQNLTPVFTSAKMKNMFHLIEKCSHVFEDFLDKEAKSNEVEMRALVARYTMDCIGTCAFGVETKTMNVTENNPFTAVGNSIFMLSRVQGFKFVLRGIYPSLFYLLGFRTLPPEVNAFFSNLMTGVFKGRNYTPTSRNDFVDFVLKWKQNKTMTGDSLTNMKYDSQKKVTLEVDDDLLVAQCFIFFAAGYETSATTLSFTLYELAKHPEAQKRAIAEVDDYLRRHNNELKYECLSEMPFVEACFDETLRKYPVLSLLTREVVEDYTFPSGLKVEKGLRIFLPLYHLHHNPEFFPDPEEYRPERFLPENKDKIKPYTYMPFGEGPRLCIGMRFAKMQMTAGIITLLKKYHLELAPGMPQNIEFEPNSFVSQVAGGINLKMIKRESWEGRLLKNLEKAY

CYP6AE11 = target: T3, CYP6AE11 (Helicoverpa armigera, UniProt A0A068ETU4)
T3 construct: full ORF, baculovirus (Bac-to-Bac) in High Five cells, microsomes, co-expressed with H. armigera cytochrome P450 reductase (HaCPR)
T3 sequence (A0A068ETU4 1-522): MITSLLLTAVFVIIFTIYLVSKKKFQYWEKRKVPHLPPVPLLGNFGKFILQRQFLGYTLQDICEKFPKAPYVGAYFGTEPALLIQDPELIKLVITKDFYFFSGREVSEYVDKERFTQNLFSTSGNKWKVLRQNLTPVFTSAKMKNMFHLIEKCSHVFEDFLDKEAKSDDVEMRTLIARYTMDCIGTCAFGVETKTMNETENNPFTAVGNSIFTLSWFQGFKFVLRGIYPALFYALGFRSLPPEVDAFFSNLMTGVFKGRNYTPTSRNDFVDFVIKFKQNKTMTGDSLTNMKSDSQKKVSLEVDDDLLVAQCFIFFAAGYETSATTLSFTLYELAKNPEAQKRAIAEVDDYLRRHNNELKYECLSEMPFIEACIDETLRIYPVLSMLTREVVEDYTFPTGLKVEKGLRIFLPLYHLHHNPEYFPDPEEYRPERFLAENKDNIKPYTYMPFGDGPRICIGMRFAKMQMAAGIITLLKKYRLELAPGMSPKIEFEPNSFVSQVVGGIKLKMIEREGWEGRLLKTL

In the case of `CCCCCCCCCCCC(C)=O` [2-tridecanone], the “substrate depletion, UPLC-MS/MS” value (CYP6AE19) is reported as 2-tridecanone was metabolized by three CYP6AE P450s: CYP6AE11, CYP6AE14, and CYP6AE19, the “substrate depletion, UPLC-MS/MS” value (CYP6AE14) is reported as 2-tridecanone was metabolized by three CYP6AE P450s: CYP6AE11, CYP6AE14, and CYP6AE19 and the “substrate depletion, UPLC-MS/MS” value (CYP6AE11) is reported as 2-tridecanone was metabolized by three CYP6AE P450s: CYP6AE11, CYP6AE14, and CYP6AE19.

— PMC6240031, “CYP6AE gene cluster knockout in Helicoverpa armigera reveals role in detoxification of phytochemicals and insecticides” (Nature Communications, 2018)
